Measured values: patent US20050239873A1 (priority 1999, published 2005)
Where “and” joins values, the source holds several entries; their conditions need not be identical. Identical values can stand only once.

Columns and labels:
[1] = system: TABX2S cells (over-expressing Bcl-xL); test: cells; details: for difference in sensitivity of the two cell lines: TABX2S vs TABX1A
Text: (§1) Briefly, a DNA fragment encoding the full-length mouse BCl-xL cDNA was isolated from the plasmid PBS.BCL-xL (Tzung et al., Am. J. Path. 150:1985-1995, 1997, incorporated herein by reference in its entirety) by digestion with the restriction endonuclease EcoRI. This EcoRI fragment was cloned into the EcoRI site of the mammalian expression vector pSFFV (Fuhlbrigge et al., Proc. Nat. Acad. Sci. USA 85:5649-5653, 1988) in both sense and antisense orientations, to form expression plasmids pSFFV.Bcl-xL(sense) or pSFFV.Bcl-xL(antisense), respectively. The tumorigenic murine hepatocyte cell line TAMH was transfected by lipofection (Lipofectamine, Life Technologies, Rockville, Md., according to the manufacturer's recommendations) with the plasmids pSFFV.neo (the control), pSFFV.Bcl-xL(sense) or pSFFV.Bcl-xL(antisense). […] Transfectants were selected for the acquisition of neomycin resistance by growing cells in the presence of 750 μg/ml of G418. Bulk transfectants were cloned by limiting dilution and individual clones were screened by immunoblot analysis to determine the level of BCl-xL protein expression as described below.
(§2) Selected transfectants were then tested for whole cell sensitivity to several apoptotic agents. Transfected cells were cultured to reach approximately 80% confluency prior to plating an equal number of cells from selected clones on 12-well tissue culture plates. The transplanted cells were treated with the following apoptotic agents: 5 μM doxorubicin for 48 hours; 5 μM cisplatin for 48 hours; or with 200 U/ml tumor necrosis factor (TNF) plus 1 μg/ml actinomycin D for 18 hours. Cell viability was determined by trypan blue dye exclusion. The percentage of viable cells was calculated by the number of viable cells (treated with a particular apoptogenic agent) divided by the number in the control group (untreated).
TABX2S cells and TABX1A cells were also examined for the effects of various mitochondrial inhibitors. […] Azide was diluted from an aqueous stock solution. […] Controls received an equivalent concentration of diluent. At various time points after drug treatment, cells were trypsinized, and cell viability was determined by trypan blue dye exclusion. The number of viable cells were counted and normalized to control group (i.e., % control=number of viable cells (treated group)/number of viable cells (control group)×100).

NCI-H929 = test: Propidium iodide exclusion / flow cytometry cytotoxicity; format: cell-based, human; details: oligomycin 2-10 mg/ml, rotenone 0.5-2.5 mg/ml
Description: (§3) Cell survival was assayed by exclusion of propidium iodide (PI; 10 μg/ml) by unfixed cells. Annexin V-FITC (Pharmingen) or 3, 3′-dihexyloxacarbocyanine iodide (DiOC6(3); Molecular Probes) staining was analyzed together with PI to discriminate early apoptotic cells. Apoptotic cells were also measured as sub-G1 events among ethanol-fixed cells stained with 10 μg/ml PI. All cell samples were analyzed using a benchtop FACSCalibur™ (Becton Dickinson, San Jose, Calif.). Flow data were analyzed using MultiCycle AV software (Phoenix Flow Systems). For intracellular pH measurements, cell pellets were washed once and resuspended in 2 ml of HEPES-buffered medium (no phenol red and no serum). Carboxy-SNARF-1-AM (Molecular Probes, 1 mM stock in DMSO, stored at −20° C.) was added to a final concentration of 10 μM, and the cells were incubated for 30 min at 37° C. Following incubation with SNARF, cells were sedimented and the pellets were held on ice. Immediately before analysis, pellets were resuspended in […] (HBSS; experimental buffer) or high-[K+] buffer containing nigericin (calibration samples).

RPMI-8226 = test: as above; format: cell-based, human; details: oligomycin 2-10 mg/ml, rotenone 0.5-2.5 mg/ml
Description: as §3

U266 = test: as above; format: cell-based, human; details: oligomycin 2-10 mg/ml, rotenone 0.5-2.5 mg/ml
Description: as §3

[2] = system: mitochondria with normal levels of Bcl-xL expression; test: JC-1 membrane potential of isolated mitochondria; design: species or system murine
Description: Isolated mitochondria were loaded with JC-1 prior to treatment, and mitochondrial labeling was determined using FACS. […] Antimycin A-treated mitochondria with high levels of Bcl-xL had lower levels of JC-1 staining than parallel samples treated with CCCP. Uncoupled mitochondria still retain a significant Donnan potential because of trapped anionic species and it is likely that antimycin-induced PT and/or swelling of mitochondria led to a further reduction of this residual potential.
As observed for the parent compound, antimycin A3, mitochondria with normal levels of BCl-xL expression were not affected by the 2-methoxy analog.

[3] = target: T1, recombinant human Bcl-2ΔC22 (Homo sapiens, UniProt P10415); test: Antimycin A3 fluorescence binding and competition assay
T1 construct: poly-His (N); made in house
Description: In this assay, 0 to 5 μM antimycin A3 (Sigma Chemical Co., St. Louis, Mo.) was added to a physiological buffer (50 mM Tris-HCl pH 8.0, 0.2 M NaCl, 2 mM EDTA, 0.5% v/v glycerol) containing recombinant Bcl-2 or BCl-xL protein under conditions that permitted antimycin A3 to bind to the BH3-binding domain of Bcl-2 or BCl-xL (22.5° C. on a Hitachi F-2500 fluorescence spectrofluorimeter equipped with a thermostatted cell holder). […] The excitation wavelength was 335 nm, and the maximum emission wavelength for antimycin A3 was 428 nm with a slit width of 10 nm. The samples were mixed in a quartz cuvette and checked for inner filter effect over the concentration range of antimycin A3 used for this study. Blanks containing antimycin A3 at the same concentration as the experimental samples were used as controls in all measurements and necessary background corrections were made.
Recombinant human Bcl-2ΔC22 (a recombinant human Bcl-2 with a delection of 22 amino acid residue membrane anchor sequence from the carboxyl end) and mouse Bcl-xLΔC20 (a recombinant murine BCl-xL with a delection of the 20 amino acid residue membrane anchor sequence from the carboxyl end) fused with poly-His at the N-terminus were chromatographically purified to homogeneity. The concentrations of antimycin A3 and stock solutions of recombinant proteins were quantitated using an extinction coefficient of 7.24/mM/cm at 320 nm and by Bradford assay, respectively. The stoichiometric ratio of antimycin A3 and Bcl-2 producing the maximal change in antimycin A3 fluorescence was determined with incremental addition of antimycin A3 to a 1.98 μM solution of recombinant Bcl-2 in a volume of 2.1 milliliters. […] For peptide displacement experiments, a solution of 2 μM antimycin A3 and 3 μM Bcl-2 was allowed to reach binding equilibrium at 4° C. prior to fluorescence measurements. Native peptide corresponding to the BH3 domain of Bak (72-[…]87 (SEQ ID NO:1)) or a mutant peptide with a single amino acid change (Leu78Ala-BH3) was added to the solution and the fluorescence measurements were repeated. […]

[4] = system: TABX1A cells (under-expressing Bcl-xL); test: Cell viability by trypan blue dye exclusion; details: Mus musculus, 48 h, read-out: cells remained viable
Text: as §1
as §2, with “The transplanted cells were treated with the following apoptotic agents: 5 μM doxorubicin for 48 hours; 5 μM cisplatin for 48 hours; or with 200 U/ml tumor necrosis factor (TNF) plus 1 μg/ml actinomycin D for 18 hours.” left out
(§4) TABX2S cells and TABX1A cells were also examined for the effects of various mitochondrial inhibitors. […] At various time points after drug treatment, cells were trypsinized, and cell viability was determined by trypan blue dye exclusion. The number of viable cells were counted and normalized to control group (i.e., % control=number of viable cells (treated group)/number of viable cells (control group)×100).

TAMH.neo cells (control) = test: Cell viability by trypan blue dye exclusion; details: Mus musculus, 48 h, read-out: cells remained viable
Text: as §1
as §2, with “The transplanted cells were treated with the following apoptotic agents: 5 μM doxorubicin for 48 hours; 5 μM cisplatin for 48 hours; or with 200 U/ml tumor necrosis factor (TNF) plus 1 μg/ml actinomycin D for 18 hours.” left out
as §4

[5] = system: TAMH cells over-expressing Bcl-xL A142L; test: Cytotoxicity (Alamar Blue) in Bcl-xL transfectants; format: cell-based, murine; details: 24 h
Description: (§5) TAMH cells were transfected with DNA encoding each of the mutant BCl-xL proteins by lipofection (See Example 1 for method). For analysis of BCl-xL expression, 20 μg of cell protein was separated by 20% SDS-PAGE and transferred to nitrocellulose membranes. Immunodetection of BCl-xL was carried out using rabbit anti-Bcl-xL antibody and Protein A/horseradish peroxidase conjugate, followed by chemiluminescent detection. Cells were grown to about 80% confluence in 96-well plates followed by addition of 100 μl of 2X AA1 or staurosporine (STS) solution in complete medium. STS is a natural product originally isolated from the bacterium Streptomyces and found to be capable of inducing apoptosis in certain cells and which induction of apoptosis could be blocked by the expression of a Bcl-2 family protein. Cell viability was determined spectrophotometrically after 24 h treatment as the ratio of reduced and oxidized Alamar Blue (BIOSOURCE) at 570 nm and 600 nm, respectively. All results were normalized against DMSO controls. LD50 values were calculated by non-linear regression analysis using Prism software (Graphpad).

[6] = system: TAMH cells over-expressing Bcl-xL E92L; test: Cytotoxicity (Alamar Blue) in Bcl-xL transfectants; format: cell-based, murine; details: 24 h
Description: as §5

[7] = system: TAMH cells over-expressing Bcl-xL F146L; test: Cytotoxicity (Alamar Blue) in Bcl-xL transfectants; format: cell-based, murine; details: 24 h
Description: as §5

[8] = system: TAMH cells over-expressing Bcl-xL F97W; test: Cytotoxicity (Alamar Blue) in Bcl-xL transfectants; format: cell-based, murine; details: 24 h
Description: as §5

[9] = system: TAMH cells over-expressing Bcl-xL WT; test: Cytotoxicity (Alamar Blue) in Bcl-xL transfectants; format: cell-based, murine; details: 24 h
Description: as §5

[10] = system: TAMH vector-only control cells; test: Cytotoxicity (Alamar Blue); format: cell-based, murine; details: 24 h
Description: as §5

Bcl-xL(ΔC) WT = target: T2, Bcl-xL(ΔC) WT (Homo sapiens, UniProt Q07817); test: Pore-forming activity, calcein release from liposomes; format: biochemical
T2 construct: inferred from Ni-NTA purification and the pET22b(+) NdeI/XhoI cloning); made in house; host or cells: Escherichia coli BL21(DE3) carrying pUB520
Description: Large unilamellar vesicles composed of 60% dioleoylphophatidylcholine and 40% dioleoylphosphatidylglycerol were prepared by the extrusion method of Mayer et al., supra. Lipid stocks, in chloroform, were mixed and dried under a stream of nitrogen gas. The lipid was resuspended by vortexing for 30 min in a solution of 40 mM calcein (Molecular Probes), 25 mM KCl, and 10 mM KOAc, pH 5.0. After 10 freeze-thaw cycles, the lipid suspension was extruded through two 0.1 μm pore diameter Nucleopore filters. Non-entrapped dye was removed by passage over a Sephadex G10 column (Amersham Biosciences). Lipid concentration was measured using the ammonium ferrothiocyanate method (Stewart, Anal. Biochem. 104:10-14, 1980).
For pore assays, recombinant truncated Bcl-2 family protein or mutant protein (Bcl-xL(ΔC)) (500 nM) was added to large unilamellar vesicles (60 μM lipid concentration) in 100 mM KCl, 10 mM KOAc, pH 5.0, and fluorescence measured (490 nm excitation, 520 nm emission) with a Fluoromax-3 spectrophotometer. Peptides of the BH3 domain were incubated with the BCl-xL(ΔC) 5 min prior to mixing with liposomes. AA1 was added to liposomes 1 min before adding the Bcl-xL(ΔC) protein. Samples for kinetic assays were analyzed in a thermostatted cuvette at 37° C. with constant stirring. Dose responses were measured in black quartz microplates (Hellma) at room temperature. Calcein release was expressed as percentage of maximum release with detergent lysis (0.1% Triton X-100).

Bcl-xL(ΔC) = target: T3, Bcl-xL(ΔC) (Homo sapiens, UniProt Q07817); test: Displacement of AA bound to Bcl-xL(ΔC); format: binding
T3 construct: made in house; host or cells: Escherichia coli BL21(DE3) carrying pUB520
Description: The non-peptide BCl-xL inhibitors, BH3I-1 and BH3I-2, interact with Phe-97 and Ala-142 in the BCl-xL hydrophobic pocket by NMR chemical shift perturbation (Degterev et al., Nat. Cell Biol. 3:173-182, 2001; Lugovskoy et al., J. Amer. Chem. Soc. 124:1234-1240, 2002). It was determined that BH3I-1 competes with AA1 for Bcl-xL(ΔC) binding.

T3 sequence (Q07817 1-211 limits assumed, stated change not applied): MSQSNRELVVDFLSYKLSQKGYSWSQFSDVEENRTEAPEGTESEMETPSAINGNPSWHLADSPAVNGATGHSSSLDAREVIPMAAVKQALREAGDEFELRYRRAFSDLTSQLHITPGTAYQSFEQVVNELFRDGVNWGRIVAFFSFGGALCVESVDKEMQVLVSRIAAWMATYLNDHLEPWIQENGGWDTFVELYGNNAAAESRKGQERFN
T2 sequence (Q07817 1-211 limits assumed, stated change not applied): as above
T1 sequence (P10415 1-217 limits assumed, stated change not applied): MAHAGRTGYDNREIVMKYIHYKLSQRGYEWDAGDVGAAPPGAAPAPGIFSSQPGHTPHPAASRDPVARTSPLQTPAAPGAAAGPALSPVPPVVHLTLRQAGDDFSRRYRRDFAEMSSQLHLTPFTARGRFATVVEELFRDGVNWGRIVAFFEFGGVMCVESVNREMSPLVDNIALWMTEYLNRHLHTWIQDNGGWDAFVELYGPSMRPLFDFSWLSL

C=C(C)[C@H]1Cc2c(ccc3c2O[C@@H]2COc4cc(OC)c(OC)cc4[C@@H]2C3=O)O1 [rotenone]
difference in sensitivity of the two cell lines [1]: no significant differences | time until cell death apparent ([1]; after treatment, TABX2S and TABX1A cells): six to eight | cell killing by oxidative phosphorylation inhibitors (NCI-H929): none of the myeloma cell lines were killed | cell killing by oxidative phosphorylation inhibitors (RPMI-8226): none of the myeloma cell lines were killed | cell killing by oxidative phosphorylation inhibitors (U266): none of the myeloma cell lines were killed

CCCC[C@H]1C(=O)O[C@H](C)[C@H](NC(=O)c2cccc(NC=O)c2O)C(=O)O[C@@H](C)[C@@H]1OC(=O)CC(C)C [antimycin A3, reference compound]
mitochondrial depolarization (JC-1) [2]: not affected | increase of intrinsic fluorescence at 428 nm in the presence of Bcl-2 [3]: ≤ 18%

CC[C@H]1/C=C/C=C/C[C@@H](C)[C@H](O)[C@@](C)(O)C(=O)[C@@H](C)[C@H](O)[C@@H](C)C(=O)[C@@H](C)[C@H](O)[C@@H](C)/C=C/C(=O)O[C@@H]2[C@H](C)[C@H](CC1)O[C@]1(CC[C@H](C)[C@H](C[C@@H](C)O)O1)[C@H]2C [oligomycin]
difference in sensitivity of the two cell lines [1]: no significant differences | cell killing by oxidative phosphorylation inhibitors (NCI-H929): killed | cell killing by oxidative phosphorylation inhibitors (RPMI-8226): Only NCI-H929 cells were killed | cell killing by oxidative phosphorylation inhibitors (U266): Only NCI-H929 cells were killed

COc1cccc2c1C(=O)c1c(O)c3c(c(O)c1C2=O)C[C@@](O)(C(=O)CO)C[C@@H]3O[C@H]1C[C@H](N)[C@H](O)[C@H](C)O1 [doxorubicin]
viability at 5 µM ([1]; Mus musculus, 48 h, read-out: cells remained viable): 88% | viability at 5 µM [4]: 20% | viability at 5 µM (TAMH.neo cells (control)): 50%

CN[C@@H]1C[C@H]2O[C@@](C)([C@@H]1OC)n1c3ccccc3c3c4c(c5c6ccccc6n2c5c31)C(=O)NC4 [STS, staurosporine]
Cytotoxicity LD50 [5]: 0.49 ± 0.11 µM | Cytotoxicity LD50 [6]: 0.52 ± 0.12 µM | Cytotoxicity LD50 [7]: 0.38 ± 0.04 µM | Cytotoxicity LD50 [8]: 0.34 ± 0.10 µM | Cytotoxicity LD50 [9]: 0.58 ± 0.1 µM and 0.58 ± 0.14 µM | Cytotoxicity LD50 [10]: 0.11 ± 0.01 µM

CC(C)C(C(=O)O)N1C(=O)/C(=C\c2ccc(Br)cc2)SC1=S (stereo not shown) [BH3I-1]
effect on Bcl-xL pore-forming activity (Bcl-xL(ΔC) WT): no effect | Ki (Bcl-xL(ΔC)): 1.87 ± 0.617 µM
